Where “and” joins values, the source holds several entries; their conditions need not be identical. Equal values may be shown once. Read-outs that look alike come from different tables or passages of the source.
Key:
Type in all cases: cell-based
T. b. rhod. = assay: In vitro counter screen, T. b. rhod.
Experimental: (§1) In vitro counter screens were performed to confirm our findings.

T. cruzi [1] = assay: In vitro counter screen, T. cruzi; details: Trypanosoma cruzi
Experimental: (§2) A high-throughput screen of small molecules was performed in duplicate in the recombinant Tulahuen strain of T. cruzi stably expressing a beta-galactosidase reporter gene. Trypomastogote-stage parasites were co-cultured with mouse fibroblast NIH/3T3 host cells, (Buckner F S, Verlinde C L, La Flamme A C, Van Voorhis W C. Efficient technique for screening drugs for activity against Trypanosoma cruzi using parasites expressing beta-galactosidase. Antimicrob Agents Chemother. 1996; 40(11): 2592-2597). Signal was normalized to neutral (DMSO) controls, and a 75% inhibition cutoff was used to define a hit. Compounds initially designated as hits were retested in dose in the primary assay to confirm their inhibitory activity. In parallel, compounds were tested in toxicity assays against NIH/3T3 host cells to determine if these compounds were cytotoxic to mammalian cells and thus, false positives. Compounds that reduced the viability of NIH/3T3 cells were excluded as viable hits. A subset of hits were then tested in a similar infection assay with the Tulahuen strain of T. cruzi infecting murine L-6 cells and the intracellular T. cruzi immunofluorescence assay described below.
as §1

L. don. axen. = assay: In vitro counter screen, L. don. axen.
Experimental: as §1

P. falc. K1 = assay: In vitro counter screen, P. falc. K1
Experimental: as §1

[2] = In vitro counter screen, cytotoxicity L6; details: murine
T. cruzi [3] = assay: T. cruzi inhibition assay (beta-galactosidase T. cruzi co-cultured with NIH/3T3 host cells); details: Trypanosoma cruzi, NIH3T3; Table 2
Experimental: as §2
1. T. cruzi Inhibition Assay
98% DMEM, Phenol Red, 2% FBS, and 1% PSG were mixed and filtered through a 0.2 microns membrane. The cells were kept at 4° C., then warmed up to 37° C. in a water bath before use.
Gal-Screen. Using a Gal-Screen base kit, Buffer B (Catalog no. T2361) was mixed with 1:25 substrate (Catalog no. T2359).
NIH/3T3 cells were cultivated in DMEM supplemented with 10% FBS and 1% PSG in T175 in 50 mL total of medium.
Parasite Culture: T. cruzi β-gal (Tc): T. cruzi β-gal were cultivated in DMEM supplemented with 2% FBS and 1% PSG in T175 flasks with vented caps in 50 mL total of medium.
2. Growth Inhibition Assay for HTS (384-Well Plates)
The medium was warmed up with 2% FBS/DMEM. The parasites were harvested in 50-mL tubes, and spun for 10 minutes at 2200 rpm. Approximately 15 mL of media was aspirated, and the samples were incubated for 3-5 h. The NIH/3T3 cells were trypsinized (refer to cell culture protocol). When the NIH/3T3 cells were detached, the cells were harvested in DMEM, 2% FBS, and 1% PSG, then counted using the Nexcelom cellometer. The cells were diluted to 166,667 cells/mL, then added to a flask and plated 5,000 cells/30 μL per well using a standard cassette multiwall drob Combi. The cells were incubated for 3 h, then T. cruzi cells were counted, diluted to 0.166 million cells/mL, and transferred to a 2-liter flask. Then, […] compounds/DMSO were pinned to each well with NIH/3T3 cells. Next, 30 μL/well of parasites (5000 T. cruzi) were added with a standard cassette multiwall drop Combi on slow speed, and incubated for 4 days (or a minimum of 90 h). Gal-Screen was prepared, 30 μL per well were dispensed in a 384-well plate, incubated for 60 minutes, and the luminescence was read using Envision (Perkin-Elmer) at 0.1 sec/well.

[4] = read-out: T. b. rhod. (IC50, ug/mL)
[5] = same result as ug/mL, in uM, read-out: T. b. rhod (IC50 uM)
[6] = read-out: T. cruzi IC50 (ug/mL)
[7] = same result as ug/mL, in uM, read-out: L. don. Axen (IC50 uM)
[8] = same result as ug/mL, in uM, read-out: P. falc. K1 (IC50 uM)

C[C@H](CO)N1C[C@H](C)[C@H](CN(C)Cc2ccccc2)Oc2c(NC(=O)c3ccncc3)cccc2C1=O [Compound 1]
IC50 (T. b. rhod.; [4]): 75.4 µg/mL
IC50 (T. b. rhod.; [5]): 150 µM
IC50 (T. cruzi [1]; read-out: T. cruzi (IC50 uM)): 1.24 µM
IC50 (T. cruzi [1]; [6]): 0.622 µg/mL
IC50 (L. don. axen.; read-out: L. don. axen. IC50): > 100 µg/mL
IC50 (L. don. axen.; [7]): > 199 µM
IC50 (P. falc. K1; read-out: P. falc. K1 IC50): 20.6 µg/mL
IC50 (P. falc. K1; [8]): 41 µM
IC50 [2]: > 199 µM and > 100 µg/mL

COc1ccc(CN(C)C[C@@H]2Oc3c(NC(=O)c4ccncc4)cccc3C(=O)N([C@H](C)CO)C[C@H]2C)cc1 [Compound 5]
IC50 (T. b. rhod.; [4]): 20.2 µg/mL
IC50 (T. b. rhod.; [5]): 37.9 µM
IC50 (T. cruzi [1]; read-out: T. cruzi (IC50 uM)): 1.31 µM
IC50 (T. cruzi [1]; [6]): 0.699 µg/mL
IC50 (L. don. axen.; read-out: L. don. axen. IC50): > 100 µg/mL
IC50 (L. don. axen.; [7]): > 188 µM
IC50 (P. falc. K1; read-out: P. falc. K1 IC50): 7.39 µg/mL
IC50 (P. falc. K1; [8]): 13.9 µM
IC50 [2]: > 188 µM and > 100 µg/mL

C[C@@H]1CN([C@@H](C)CO)C(=O)c2cccc(NC(=O)c3ccncc3)c2O[C@H]1CN(C)Cc1ccc(-c2ccccc2)cc1 [Compound 7]
IC50 (T. b. rhod.; [4]): 0.729 µg/mL
IC50 (T. b. rhod.; [5]): 1.26 µM
IC50 (T. cruzi [1]; read-out: T. cruzi (IC50 uM)): 0.123 µM
IC50 (T. cruzi [1]; [6]): 0.071 µg/mL
IC50 (L. don. axen.; read-out: L. don. axen. IC50): 13.3 µg/mL
IC50 (L. don. axen.; [7]): 23 µM
IC50 (P. falc. K1; read-out: P. falc. K1 IC50): 1.2 µg/mL
IC50 (P. falc. K1; [8]): 2.07 µM
IC50 [2]: 23.3 µM and 13.5 µg/mL

C[C@@H]1CN([C@H](C)CO)C(=O)c2cccc(NC(=O)c3ccncc3)c2O[C@H]1CN(C)Cc1ccc2c(c1)OCO2 [Compound 8]
IC50 (T. b. rhod.; [5]): 12.5 µM
IC50 (T. cruzi [1]; read-out: T. cruzi (IC50 uM)): 0.143 µM
IC50 (L. don. axen.; read-out: L. don. Axen (IC50 uM)): > 183 µM
IC50 (P. falc. K1; [8]): 10.6 µM
IC50 ([2]; L6 cells, same result as ug/mL, in uM, read-out: cytotox, (IC50 uM)): > 183 µM

C[C@@H]1CN([C@H](C)CO)C(=O)c2cccc(NC(=O)c3ccncc3)c2O[C@H]1CN(C)Cc1ccccc1 [Compound 9]
IC50 (T. b. rhod.; [4]): 35.1 µg/mL
IC50 (T. b. rhod.; [5]): 69.8 µM
IC50 (T. cruzi [1]; read-out: T. cruzi (IC50 uM)): 0.304 µM
IC50 (T. cruzi [1]; [6]): 0.153 µg/mL
IC50 (L. don. axen.; read-out: L. don. axen. IC50): 84.4 µg/mL
IC50 (L. don. axen.; [7]): 168 µM
IC50 (P. falc. K1; read-out: P. falc. K1 IC50): 4.83 µg/mL
IC50 (P. falc. K1; [8]): 9.61 µM
IC50 [2]: > 199 µM and > 100 µg/mL

C[C@H](CO)N1C[C@H](C)[C@@H](CN(C)Cc2ccc(C(F)(F)F)cc2)Oc2c(NC(=O)c3ccncc3)cccc2C1=O [Compound 13]
IC50 (T. b. rhod.; [4]): 3.49 µg/mL
IC50 (T. b. rhod.; [5]): 6.12 µM
IC50 (T. cruzi [1]; read-out: T. cruzi (IC50 uM)): 0.875 µM
IC50 (T. cruzi [1]; [6]): 0.499 µg/mL
IC50 (L. don. axen.; read-out: L. don. axen. IC50): 16.3 µg/mL
IC50 (L. don. axen.; [7]): 28.6 µM
IC50 (P. falc. K1; read-out: P. falc. K1 IC50): 2.95 µg/mL
IC50 (P. falc. K1; [8]): 5.17 µM
IC50 [2]: 79.7 µM and 45.5 µg/mL

C[C@H]1CN([C@@H](C)CO)C(=O)c2cccc(NC(=O)c3ccncc3)c2O[C@H]1CN(C)Cc1ccccc1 [Compound 17]
IC50 (T. b. rhod.; [4]): 6.14 µg/mL
IC50 (T. b. rhod.; [5]): 12.2 µM
IC50 (T. cruzi [1]; read-out: T. cruzi (IC50 uM)): 0.39 µM
IC50 (T. cruzi [1]; [6]): 0.196 µg/mL
IC50 (L. don. axen.; read-out: L. don. axen. IC50): > 100 µg/mL
IC50 (L. don. axen.; [7]): > 199 µM
IC50 (P. falc. K1; read-out: P. falc. K1 IC50): 5.64 µg/mL
IC50 (P. falc. K1; [8]): 11.2 µM
IC50 [2]: > 199 µM and > 100 µg/mL

C[C@H]1CN([C@@H](C)CO)C(=O)c2cccc(NC(=O)c3ccncc3)c2O[C@H]1CN(C)Cc1ccc(-c2ccccc2)cc1 [Compound 20]
IC50 (T. b. rhod.; [4]): 6.41 µg/mL
IC50 (T. b. rhod.; [5]): 11.1 µM
IC50 (T. cruzi [1]; read-out: T. cruzi (IC50 uM)): 0.394 µM
IC50 (T. cruzi [1]; [6]): 0.228 µg/mL
IC50 (L. don. axen.; read-out: L. don. axen. IC50): 6.47 µg/mL
IC50 (L. don. axen.; [7]): 11.2 µM
IC50 (P. falc. K1; read-out: P. falc. K1 IC50): 1.14 µg/mL
IC50 (P. falc. K1; [8]): 1.97 µM
IC50 [2]: 30.2 µM and 17.5 µg/mL

C[C@@H]1CN([C@@H](C)CO)C(=O)c2cccc(NC(=O)c3ccncc3)c2O[C@H]1CN(C)Cc1ccc(Oc2ccccc2)cc1 [Compound 21]
IC50 (T. cruzi [3]): < 0.0026 µM

C[C@@H](CO)N1CC[C@H](CN(C)Cc2cccc(Cl)c2)Oc2c(NC(=O)c3ccncc3)cccc2C1=O [Compound 22]
IC50 (T. cruzi [3]): < 0.0026 µM

C[C@@H]1CN([C@@H](C)CO)C(=O)c2cccc(NC(=O)c3ccncc3)c2O[C@H]1CN(C)C [Compound 23]
IC50 (T. cruzi [3]): > 10 µM

C[C@H](CO)N1C[C@H](C)[C@@H](CN(C)Cc2ccc(Oc3ccccc3)cc2)Oc2c(NC(=O)c3ccncc3)cccc2C1=O [Compound 24]
IC50 (T. cruzi [3]): < 0.0026 µM

C[C@@H]1CN([C@@H](C)CO)C(=O)c2cc(Br)cnc2O[C@H]1CN(C)Cc1ccc2c(c1)OCO2 [Compound 25]
IC50 (T. cruzi [3]): > 10 µM

C[C@@H]1CN([C@@H](C)CO)C(=O)c2cccc(NC(=O)c3ccncc3)c2O[C@H]1CN(C)Cc1ccccc1Cl [Compound 26]
IC50 (T. cruzi [3]): 0.0039 µM

C[C@@H]1CN([C@H](C)CO)C(=O)c2cccc(NC(=O)c3ccncc3)c2O[C@H]1CN(C)Cc1ccc2c(c1)OCO2 [Compound 27]
IC50 (T. cruzi [3]): 0.00148 µM

C[C@@H]1CN([C@H](C)CO)C(=O)c2cccc(NC(=O)c3ccncc3)c2O[C@@H]1CN(C)Cc1ccc(Oc2ccccc2)cc1 [Compound 28]
IC50 (T. cruzi [3]): 0.0426 µM

C[C@H]1CN([C@@H](C)CO)C(=O)c2cccc(NC(=O)c3ccncc3)c2O[C@H]1CN(C)Cc1ccc(Oc2ccccc2)cc1 [Compound 29]
IC50 (T. cruzi [3]): < 0.0026 µM

C[C@@H]1CN([C@@H](C)CO)C(=O)c2cccc(NC(=O)c3ccncc3)c2O[C@H]1CN(C)Cc1ccc(Cl)cc1 [Compound 30]
IC50 (T. cruzi [3]): < 0.0026 µM

C[C@@H]1CN([C@@H](C)CO)C(=O)c2cc(-c3ccncc3)cnc2O[C@H]1CN(C)Cc1ccc(Oc2ccccc2)cc1 [Compound 31]
IC50 (T. cruzi [3]): 1.28 µM

C[C@@H]1CN([C@@H](C)CO)C(=O)c2cccc(NC(=O)c3ccncc3)c2O[C@@H]1CN(C)Cc1ccc(Oc2ccccc2)cc1 [Compound 32]
IC50 (T. cruzi [3]): 0.00434 µM

C[C@@H]1CN([C@@H](C)CO)C(=O)c2cc(-c3cncnc3)cnc2O[C@H]1CN(C)Cc1ccc(Oc2ccccc2)cc1 [Compound 33]
IC50 (T. cruzi [3]): > 10 µM

CC(C)N1C[C@@H](C)[C@H](CN(C)Cc2ccc(Oc3ccccc3)cc2)Oc2c(NC(=O)c3ccncc3)cccc2C1=O [Compound 34]
IC50 (T. cruzi [3]): < 0.0026 µM

Cc1cc(C(=O)Nc2cccc3c2O[C@@H](CN(C)Cc2ccc(Oc4ccccc4)cc2)[C@H](C)CN([C@@H](C)CO)C3=O)n(C)n1 [Compound 35]
IC50 (T. cruzi [3]): > 10 µM

C[C@@H]1CN([C@@H](C)CO)C(=O)c2cccc(NC(=O)c3ccncc3)c2O[C@H]1CN(C)Cc1ccc2c(c1)OCO2 [Compound 36]
IC50 (T. cruzi [3]): 0.00659 µM

C[C@@H]1CN([C@H](C)CO)C(=O)c2cccc(NC(=O)c3ccncc3)c2O[C@H]1CN(C)Cc1ccccc1 [Compound 37]
IC50 (T. cruzi [3]): 0.0153 µM

C[C@@H]1CN([C@@H](C)CO)C(=O)c2cccc(NC(=O)c3cnccn3)c2O[C@H]1CN(C)Cc1ccc(Oc2ccccc2)cc1 [Compound 38]
IC50 (T. cruzi [3]): 1 µM

COc1ccc(CN(C)C[C@@H]2Oc3c(NC(=O)c4ccncc4)cccc3C(=O)N([C@@H](C)CO)C[C@H]2C)cc1 [Compound 39]
IC50 (T. cruzi [3]): 0.011 µM

C[C@H]1CN([C@@H](C)CO)C(=O)c2cccc(NC(=O)c3ccncc3)c2O[C@@H]1CN(C)Cc1ccc(Oc2ccccc2)cc1 [Compound 40]
IC50 (T. cruzi [3]): < 0.0026 µM

C[C@@H]1CN([C@H](C)CO)C(=O)c2cccc(NC(=O)c3ccncc3)c2O[C@H]1CN(C)Cc1ccc(Oc2ccccc2)cc1 [Compound 41]
IC50 (T. cruzi [3]): 0.000529 µM

C[C@@H]1CN([C@@H](C)CO)C(=O)c2cccc(NC(=O)c3ccncc3)c2O[C@H]1CN(C)CC1CCCCC1 [Compound 42]
IC50 (T. cruzi [3]): 0.0421 µM

C[C@@H]1CN([C@@H](C)CO)C(=O)c2cc(-c3cccnc3)cnc2O[C@H]1CN(C)Cc1ccc(Oc2ccccc2)cc1 [Compound 43]
IC50 (T. cruzi [3]): 9.27 µM
